For the data set the following is noted: from C=C[C@@H]1OC(c2ccc(OC)cc2)O[C@]1(C)CC[C@H](CC(=O)O[C@H](/C(C)=C/I)[C@@H](C)C=C)O[Si](C)(C)C(C)(C)C; rcm bond; Hoveyda-Grubbs 2nd generation; toluene; 6.52 mM; 110.0 °C; 5.0 h.

Molecule `COc1ccc(C2O[C@H]3C=C[C@H](C)[C@@H](/C(C)=C/I)OC(=O)C[C@H](O[Si](C)(C)C(C)(C)C)CC[C@@]3(C)O2)cc1` (stereo partly shown) came in with a ring closure, yield of all isomers of 50%.

The record behind these values is patent publication EP4818312A2.
